Reference: US4419358A, “Isethionic acid salt of 9-cyclohexyl-2-propoxy-9H-purine-6-amine and compositions containing an effective bronchodilating concentration of it” (Mead Johnson & Company, priority 1981, dated 1983)
Read-outs that look alike come from different tables or passages of the source.

Assays:
Format in all cases: physicochemical
[1] = Water solubility of salts of MJ 13156 (Table 1, Method A or B); settings: for Solubility: room temperature (about 25° C.)
Experimental: More conventional pharmaceutically acceptable acid addition salts of MJ 13156 are not well suited for the present use due to a limited solubility and, in some cases, lack of stability.
^1 Solubility data obtained using one of two methods:
Solubilities of isolated salts determined in standard manner by adding
H2 O to weighed salt samples and directly obtaining solubility data.
Solubilities of salts prepared in situ determined by adding a
moleequivalent of each acid to a 140 mg sample of MJ 13156 and then
diluting with H2 O in increments to 2.5 mg/mL. A second
moleequivalent of acid was added to each sample and allowed to stand
overnight. The precipitates were collected, dried, and weighed to obtain

[2] = Dissociation of salts/solvates in water
Experimental: (§1) Preparation of the isethionate salt of MJ 13156 is carried out by treating an equivalent of base in ethyl acetate with 2 equivalents of isethionic acid in ethanol-ethyl acetate solution. Chilling the mixture yields the salt which is collected by filtration. The salt can similarly be prepared by using more concentration solutions of both the acid and the base in ethanol.

[3] = Basicity (ability of MJ 13156 to form salts with weak acids); settings: gluconic, lactobionic, acetic, and levulinic acids
Experimental: as §1

[4] = Method B: salts prepared in situ from 140 mg MJ 13156, second moleequivalent of acid added, overnight
[5] = Method A: H2O added to weighed samples of isolated salts
[6] = listed as methanesulfonate salt

SMILES | Solubility [1, 4] [µg/mL] | Solubility [1, 5] [µg/mL] | also measured
CCCOc1nc(N)c2ncn(C3CCCCC3)c2n1 [nitric] | 2400 | – | –
CCCOc1nc(N)c2ncn(C3CCCCC3)c2n1 [methanesulfonic] | – | 8000 | water solubility (in words) [1, 6]: reasonable water solubility; dissociation in water (in words) [2, 6]: dissociates moderately in water
CCCOc1nc(N)c2ncn(C3CCCCC3)c2n1 [sulfuric] | 800 | – | –
CC(=O)CCC(=O)O [levulinic acid] | – | – | dissociation in water (in words) [2]: dissociated in water to give MJ 13156 base
CCCOc1nc(N)c2ncn(C3CCCCC3)c2n1 [acetic acid solvate] | – | – | dissociation in water (in words) [2]: dissociated in water to give MJ 13156 base
CCCOc1nc(N)c2ncn(C3CCCCC3)c2n1 [hydrochloric] | – | 1400 | –
CCCOc1nc(N)c2ncn(C3CCCCC3)c2n1 [hydrobromic] | 1600 | – | –
CCCOc1nc(N)c2ncn(C3CCCCC3)c2n1 [MJ 13156, 9-cyclohexyl-2-propoxy-9H-purine-6-amine] | – | – | base strength (in words) [3]: too weak a base to form a salt with these acids
CCCOc1nc(N)c2ncn(C3CCCCC3)c2n1 [isethionic, 9-Cyclohexyl-2-propoxy-9H-purine-6-amine 2-Hydroxyethanesulfonate] | – | 100000 | water solubility (in words) ([1]; listed as isethionate salt): clearly the most soluble of all those prepared
CCCOc1nc(N)c2ncn(C3CCCCC3)c2n1 [phosphoric] | 1300 | – | –
